Data published in paper PMC11448502, “Cryo-EM structures of the human P2X1 receptor reveal subtype-specific architecture and antagonism by supramolecular ligand-binding” (Nature Communications, 2024).
Where a chain is given by its changes, count along the chain named. Where “and” joins values, the source holds several entries; their conditions need not be identical. Equal entries are not always repeated. Where two headings read alike, the source gives them in different places.

Columns and labels:
hP2X3 WT = biological target: T1, hP2X3 WT (Homo sapiens, UniProt P56373); assay: ATP dose response (EC50), TEVC in oocytes; type: cell-based
T1 construct: expressed in transfected cells
T1 sequence (P56373 1-397): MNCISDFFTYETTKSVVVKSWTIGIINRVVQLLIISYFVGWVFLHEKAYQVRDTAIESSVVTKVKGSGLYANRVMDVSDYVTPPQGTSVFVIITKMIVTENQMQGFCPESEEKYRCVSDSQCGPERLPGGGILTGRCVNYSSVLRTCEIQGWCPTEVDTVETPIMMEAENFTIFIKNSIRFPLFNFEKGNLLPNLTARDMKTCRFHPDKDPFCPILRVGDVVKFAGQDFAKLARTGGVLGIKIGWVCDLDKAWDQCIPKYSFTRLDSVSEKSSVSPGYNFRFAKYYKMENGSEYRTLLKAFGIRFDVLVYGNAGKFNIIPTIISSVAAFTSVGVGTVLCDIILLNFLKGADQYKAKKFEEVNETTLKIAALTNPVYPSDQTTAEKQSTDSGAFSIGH

P2X7 receptor = biological target: P2X7 receptor; design: method as in PMID 33125712, PMID 18657557; conditions: read-out: apparent affinity for ATP, cited from earlier work
P2X1 = test system: P2X1; design: method as in doi.org/10.1074/jbc.M114.592246; conditions: reviewer comment; ref doi.org/10.1074/jbc.M114.592246; cited from earlier work
hP2X1 K136A/R139A = biological target: T2, hP2X1 K136A/R139A (Homo sapiens, UniProt P51575, K136A/R139A); assay: NF449 inhibition dose response (IC50), TEVC in oocytes; type: cell-based; conditions: for Normalized Current: hP2X1 K136A/R139A
T2 construct: hP2X1 mRNA that was made from linearized full-length wild-type or mutant pcDNA 3.1x; expressed in transfected cells; host or cells: Xenopus laevis oocytes (mRNA injection)
T2 sequence (P51575 1-399 K136A/R139A): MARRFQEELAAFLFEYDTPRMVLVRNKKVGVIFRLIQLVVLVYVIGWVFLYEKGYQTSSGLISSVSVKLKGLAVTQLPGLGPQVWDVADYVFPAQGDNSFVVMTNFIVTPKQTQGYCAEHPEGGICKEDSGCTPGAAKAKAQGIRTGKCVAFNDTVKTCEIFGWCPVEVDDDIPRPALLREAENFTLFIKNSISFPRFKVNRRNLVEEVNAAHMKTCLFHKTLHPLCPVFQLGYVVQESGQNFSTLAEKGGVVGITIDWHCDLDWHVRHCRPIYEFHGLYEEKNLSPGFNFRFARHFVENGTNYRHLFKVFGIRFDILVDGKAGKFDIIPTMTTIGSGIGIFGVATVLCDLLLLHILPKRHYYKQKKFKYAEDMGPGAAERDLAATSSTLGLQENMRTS
Description: (§1) Oocytes were purchased defolliculated from Ecocyte Bioscience in Barth’s Solution (88 mM NaCl, 1 mM KCl, 0.82 mM MgSO4, 0.33 mM Ca(NO3)2, 0.41 mM CaCl2, 2.4 mM NaHCO3, 5 mM Tris-HCl) supplemented with penicillin (100 U/mL) and streptomycin (100 µg/mL). Xenopus laevis oocytes were then injected with 50 nL of 100 ng/μL hP2X1 mRNA that was made from linearized full-length wild-type or mutant pcDNA 3.1x according to the protocol provided in the mMessage mMachine kit (Invitrogen). Injected oocytes were allowed to express for ~20 hours at 18 °C before recording was performed.
(§2) Data acquisition was performed using the Oocyte Clamp OC-725C amplifier and pClamp 8.2 software. Buffers were applied using a gravity fed RSC-200 Rapid Solution Changer that flows at ~5 mL/min. All experiments use Sutter filamented glass 10 cm in length with an inner diameter of 0.69 mm and an outer diameter of 1.2 mm to impale oocytes and clamp the holding voltage at −60 mV. Experiments were recorded in buffer containing 10 mM HEPES (pH 7.4), 140 mM NaCl, 5 mM KCl, 2 mM CaCl2, 2 mM MgCl2, and 10 mM glucose.
(§3) To test a dilution series of an antagonist at discrete concentrations, 10 µM ATP (2 mM ATP for K309A only) was first applied to evoke an initial maximum current. The oocyte was then washed with buffer for one minute, followed by one minute application of an antagonist test-concentration, and concluded by co-application of the same test concentration with 10 µM ATP (2 mM ATP for K309A). The antagonized signal was then normalized against the initial ATP excitatory signal. Each test concentration was performed in triplicate across different oocytes. The data was then fit to a nonlinear regression named “[inhibitor] vs. response – Variable slope (four parameters)” in Prism 9 to produce a sigmoidal curve and afford an IC50 value. Each singular condition was used to generate an average which is reported plus or minus its standard deviation between three discrete trials.

hP2X1 K309A = biological target: T3, hP2X1 K309A (Homo sapiens, UniProt P51575, K309A); assay: as above; type: cell-based; conditions: for Normalized Current: hP2X1 K309A
T3 construct: hP2X1 mRNA that was made from linearized full-length wild-type or mutant pcDNA 3.1x; expressed in transfected cells; host or cells: Xenopus laevis oocytes (mRNA injection)
T3 sequence (P51575 1-399 K309A): T2 sequence (P51575 1-399 K136A/R139A) with A136K, A139R, K309A
Description: as §1, §2, §3

With `Nc1ncnc2c1ncn2[C@@H]1O[C@H](COP(=O)(O)OP(=O)(O)OP(=O)(O)O)[C@@H](O)[C@H]1O` [ATP] the EC50 (hP2X3 WT; TEVC) was 0.8 ± 0.1 µM, the “Normalized Current” value (hP2X3 WT; [ATP] 1.000E-04 M) was 1.024 and 0.937 and 0.934 and the “Normalized Current” value (hP2X3 WT; [ATP] 1.563E-06 M) was 0.9021 and 0.8096 and 0.6657. For the same molecule, the “Normalized Current” value (hP2X3 WT; [ATP] 2.500E-05 M) was 1.229 and 0.9489 and 0.8224, the “Normalized Current” value (hP2X3 WT; [ATP] 3.906E-07 M) was 0.1693 and 0.1661 and 0.1374 and the “Normalized Current” value (hP2X3 WT; [ATP] 6.250E-06 M) was 0.9276 and 0.9021 and 0.8266. The “Normalized Current” value (hP2X3 WT; [ATP] 9.766E-08 M) was 0.0748 and 0.0739 and 0.04276, the “Hill slope of activation by ATP” value (hP2X3 WT; mean ± SD of three EC50 traces) was 2.5 ± 0.6 and the EC50 (P2X7 receptor) was > 100 µM. The EC50 (P2X7 receptor; under certain conditions) was > 1000 µM.

For `O=C(Nc1cc(C(=O)Nc2ccc(S(=O)(=O)O)cc2S(=O)(=O)O)cc(C(=O)Nc2ccc(S(=O)(=O)O)cc2S(=O)(=O)O)c1)Nc1cc(C(=O)Nc2ccc(S(=O)(=O)O)cc2S(=O)(=O)O)cc(C(=O)Nc2ccc(S(=O)(=O)O)cc2S(=O)(=O)O)c1` [NF449, 4,4’,4”,4’’’-(carbonylbis(imino-5,1,3-benzenetriylbis(carbonylimino)))tetrakis-benzene-1,3-disulfonic acid], the Hill coefficient (P2X1) is listed as ~ 1.4, the “decrease in inhibitory potency of NF449” value (hP2X1 K136A/R139A; hP2X1 K136A/R139A vs wild-type) is listed as 990 fold and the “Normalized Current” value (hP2X1 K136A/R139A; [NF449] 1.000E-06 M) is listed as 0.4929 and 0.4694 and 0.363. For the same molecule, the “Normalized Current” value (hP2X1 K136A/R139A; [NF449] 2.000E-07 M) was 0.8009 and 0.7536 and 0.7046, the “Normalized Current” value (hP2X1 K136A/R139A; [NF449] 4.000E-08 M) was 1.069 and 1.018 and 0.8793 and the “Normalized Current” value (hP2X1 K136A/R139A; [NF449] 6.246E-06 M) was 0.148 and 0.1446 and 0.1086. The “Normalized Current” value (hP2X1 K136A/R139A; [NF449] 8.000E-09 M) was 1.104 and 1.01 and 0.886, the “reduction in inhibitory potency (IC50) of NF449” value (hP2X1 K309A; hP2X1 K309A vs wild-type) was 5 fold and the “Normalized Current” value (hP2X1 K309A; [NF449] 1.600E-09 M) was 0.804 and 0.6904 and 0.632. The “Normalized Current” value (hP2X1 K309A; [NF449] 3.200E-10 M) was 1.021 and 0.9283 and 0.8888, the “Normalized Current” value (hP2X1 K309A; [NF449] 6.400E-11 M) was 1.062 and 1.037 and 0.9009 and the “Normalized Current” value (hP2X1 K309A; [NF449] 8.000E-09 M) was 0.3679 and 0.3618 and 0.2758.
